From US11787762B2, “Tetralin and tetrahydroquinoline compounds as inhibitors of HIF-2alpha” (ARCUS BIOSCIENCES, INC., priority 2020, dated 2023)

How the values were obtained:
[1] = biological target: T1, Histidine tagged HIF-2α protein containing PAS-B domain (240-350) (Homo sapiens, UniProt Q99814); assay: HIF-2α Scintillation Proximity Assay (SPA) binding assay; details: Table 3; 50 nM HIF-2α protein, 25 nM 3H-tracer
T1 construct: HIF-2α protein containing PAS-B domain (240-350); made in house
T1 sequence (Q99814 240-350): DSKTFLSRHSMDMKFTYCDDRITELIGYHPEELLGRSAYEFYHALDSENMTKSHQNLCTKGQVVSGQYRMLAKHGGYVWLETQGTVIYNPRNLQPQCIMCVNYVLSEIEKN
How it was run: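 His-tagged HIF-2α PAS-B (240-350), 50 nM final, preincubated with compound 1 h at room temperature in 25 mM Tris-HCl pH 7.4, 150 mM NaCl, 0.15% BSA, 0.001% Tween 20, 2% DMSO. Copper-chelate SPA beads (3 ug/well, 45 min) and 25 nM tritiated N-(3-chlorophenyl)-4-nitro-2,1,3-benzoxadiazol-5-amine tracer followed; IC50 from four-parameter fits.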

HIF-2α = biological target: T2, HIF-2α (Homo sapiens, UniProt Q99814); assay: HIF-2α luciferase reporter assay in HIF-Luc-786-O cells; type: cell-based; details: Table 3, 20 hours incubation
T2 construct: host or cells: 786-O cells stably transduced with Cignal Lenti HIF Luc Reporter (only the reporter was introduced, not HIF-2α)
T2 sequence (Q99814 whole entry): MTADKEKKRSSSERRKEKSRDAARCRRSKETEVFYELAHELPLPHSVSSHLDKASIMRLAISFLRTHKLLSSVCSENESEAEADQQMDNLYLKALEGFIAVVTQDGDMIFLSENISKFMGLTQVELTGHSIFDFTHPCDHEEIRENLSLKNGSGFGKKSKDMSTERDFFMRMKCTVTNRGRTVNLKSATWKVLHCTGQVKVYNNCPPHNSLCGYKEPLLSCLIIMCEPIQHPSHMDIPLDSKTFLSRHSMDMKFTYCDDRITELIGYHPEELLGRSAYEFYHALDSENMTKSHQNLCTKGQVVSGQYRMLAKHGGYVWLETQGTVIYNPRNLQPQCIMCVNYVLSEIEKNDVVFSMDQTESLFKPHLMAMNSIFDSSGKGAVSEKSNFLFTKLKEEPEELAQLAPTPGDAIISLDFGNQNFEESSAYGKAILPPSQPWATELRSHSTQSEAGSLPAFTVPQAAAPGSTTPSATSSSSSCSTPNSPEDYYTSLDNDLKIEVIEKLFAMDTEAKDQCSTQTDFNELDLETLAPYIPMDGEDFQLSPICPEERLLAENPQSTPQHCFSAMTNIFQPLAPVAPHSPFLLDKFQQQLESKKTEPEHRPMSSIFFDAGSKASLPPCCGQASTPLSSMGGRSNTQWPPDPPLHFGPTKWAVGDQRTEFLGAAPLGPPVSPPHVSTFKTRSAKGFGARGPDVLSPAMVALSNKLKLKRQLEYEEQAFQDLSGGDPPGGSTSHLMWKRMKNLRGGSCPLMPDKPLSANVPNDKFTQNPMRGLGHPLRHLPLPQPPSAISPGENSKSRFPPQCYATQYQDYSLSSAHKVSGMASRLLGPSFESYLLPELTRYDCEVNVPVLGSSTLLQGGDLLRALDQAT
How it was run: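 786-O cells stably carrying a HIF-responsive luciferase reporter, 20,000/well in OptiMem with 1% DMSO, exposed to compound up to 50 uM for 20 h at 37 °C. ONE-Glo luminescence normalised to DMSO and no-cell controls; IC50 by four-parameter fit.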

IC50 [1]	IC50 (HIF-2α)	Structure (SMILES)
< 100 nM	< 100 nM	CS(=O)(=O)c1ccc([C@H]2C[C@H](F)[C@H](F)c3cc(F)cc(C#N)c32)c2c1[C@H](O)[C@H](F)C2 [Example 215, (5R,6S,8R)-3,5,6-trifluoro-8-[(1S,2R)-2-fluoro-1-hydroxy-7-methanesulfonyl-2,3-dihydro-1H-inden-4-yl]-5,6,7,8-tetrahydronaphthalene-1-carbonitrile]
< 100 nM	< 100 nM	Cn1cncc1-c1ccc([C@H]2CC[C@H](F)c3cc(F)cc(C#N)c32)c2c1[C@H](O)C(F)(F)C2 [Example 240, (5S,8R)-8-[(1S)-2,2-difluoro-1-hydroxy-7-(3-methylimidazol-4-yl)-1,3-dihydroinden-4-yl]-3,5-difluoro-5,6,7,8-tetrahydronaphthalene-1-carbonitrile]
< 100 nM	< 100 nM	Cc1ccncc1-c1ccc([C@H]2CC[C@H](F)c3cc(F)cc(C#N)c32)c2c1[C@H](O)C(F)(F)C2 [Example 241, (5S,8R)-8-[(1S)-2,2-difluoro-1-hydroxy-7-(4-methylpyridin-3-yl)-2,3-dihydro-1H-inden-4-yl]-3,5-difluoro-5,6,7,8-tetrahydronaphthalene-1-carbonitrile]
< 100 nM	< 100 nM	Cc1cnccc1-c1ccc([C@H]2CC[C@H](F)c3cc(F)cc(C#N)c32)c2c1[C@H](O)C(F)(F)C2 [Example 242, (5S,8R)-8-[(1S)-2,2-difluoro-1-hydroxy-7-(3-methylpyridin-4-yl)-2,3-dihydro-1H-inden-4-yl]-3,5-difluoro-5,6,7,8-tetrahydronaphthalene-1-carbonitrile]
